# Test results reported in patent US20130096166A1 (Clark Atlanta University, priority 2011, published 2013).
# Key:
# C4-2 cells [1] = test: Detection of reactive oxygen species (H2DCFDA oxidation); type: cell-based, human
# Description: (§1) Cells were plated at a density of 1×10^4 cells well in 96-well black clear bottom plates and left to attach overnight. Baseline ROS levels were assessed in untreated ARCaP Neo, […], and C4-2 cells. Prior to treatment, […] C4-2 cells were starved in serum-free and phenol red free RPMI. […] Procedures were performed following manufacturer's protocol (Molecular Probes®, Invitrogen) with slight modifications. Briefly, cells were loaded with 10 μM (final working concentration) of H2DCFDA in pre-warmed Hanks Balance Salt solution (HBSS) for 45 minutes. This was replaced with experimental media with various treatments as well as untreated controls, for 3 days. H2DCFDA oxidation was measured on a spectrofluorometer (BIOTek Synergy HT, BIOTeK Instruments Inc., Vt.) with excitation […] and emission 528 nm at desired increments.
# [2] = Cell viability assay (CellTiter 96 AQueous One, MTS); type: cell-based, human; details: human, ARCaP Neo cells, 3 days, 50 μM H2O2, read-out: decrease in cell viability
# Description: (§2) PrEC, ARCaP Neo, ARCaP Snail, LNCaP, and C4-2 cells were plated at a density of 2,000 cells per well in 96-well plates and allowed to attach overnight.
# cleaved PARP = test: Western blot analysis of cleaved PARP protein expression; type: cell-based, human; details: for effect on camalexin-mediated PARP cleavage: H2O2 with camalexin
# ARCaP Snail cells [3] = test: Detection of reactive oxygen species (H2DCFDA oxidation); type: cell-based, human
# Description: as §1
# ARCaP Snail cells [4] = test: Cell viability assay (CellTiter 96 AQueous One, MTS); type: cell-based, human
# Description: as §2
# [5] = test system: caspase-3/7 activity in ARCaP Snail cells; test: FACS analysis of caspase-3/7 activity (Dual Sensor Mitocasp assay); type: cell-based, human; details: 3 days
# Description: Caspases are generally accepted as the executioners of apoptosis. […] Stained cells were evaluated in an Accuri® C6 Flow Cytometer (Accuri Cytometers Inc., Ann Arbor, Mich.) and analyzed using FlowJo software.
# ARCaP Neo cells = test: Cell viability assay (CellTiter 96 AQueous One, MTS); type: cell-based, human
# Description: as §2
# C4-2 cells [6] = test: as above; type: cell-based, human
# Description: as §2
# LNCaP cells = test: as above; type: cell-based, human
# Description: as §2
# Snail = test: Western blot analysis of Snail protein expression; type: cell-based, human; details: 3 days
# caspase-3 = test: Western blot analysis of total caspase-3 protein expression; type: cell-based, human
# Jurkat T-leukemia cells = details: by increasing ROS and activation of caspases; cited from earlier work
# Trypanosoma cruzi = details: cited from earlier work
# [7] = 10 mM NAC added to 25 or 50 μM camalexin
# [8] = ARCaP Neo cells, 10, 25 and 50 μM
compound,measurement,setting,value
"OO [H2O2, Hydrogen peroxide, reference compound]",ROS in cells,C4-2 cells [1]; 100 μM H2O2 positive control,significantly increased ROS
same,"cytotoxicity at 3 days, 50 μM",[2],~50%
same,effect on camalexin-mediated PARP cleavage,cleaved PARP; ARCaP Neo cells,potentiated camalexin-mediated PARP cleavage
same,effect on camalexin-mediated PARP cleavage,cleaved PARP; LNCaP cells,potentiated camalexin-mediated PARP cleavage
"CC(=O)N[C@@H](CS)C(=O)O [NAC, N-acetyl cysteine, reference compound]",effect on camalexin-mediated ROS,ARCaP Snail cells [3]; [7],abrogated by NAC
same,effect on camalexin-mediated ROS,C4-2 cells [1]; [7],significantly decreased camalexin-mediated ROS
same,increased viability vs. 25 μM camalexin-only treatment,"ARCaP Snail cells [4]; 3 days, 25 μM camalexin with 10 mM NAC, not statistically significant",approximately 15%
same,effect on camalexin-induced increase in caspase-3/7 activity,[5]; 25 μM camalexin plus 10 mM NAC,abrogated the percent increase in caspase-3/7 activity
same,effect on camalexin-increased cleaved PARP protein expression,"cleaved PARP; ARCaP Snail cells, co-treatment with NAC",could be inhibited by co-treatment with NAC
"c1ccc2c(-c3nccs3)c[nH]c2c1 [camalexin, 3-thiazol-2′yl-indole]","ROS, as compared to untreated controls",ARCaP Snail cells [3]; 25 μM camalexin,approximately 210%
same,"ROS, as compared to untreated controls",ARCaP Snail cells [3]; 50 μM camalexin,~350±25%
same,"ROS, of untreated controls",C4-2 cells [1]; 25 μM camalexin,approximately 130±5%
same,"ROS, of untreated controls",C4-2 cells [1]; 50 μM camalexin,~150±5%
same,cell viability,ARCaP Neo cells; day 0,no change in viability
same,cell viability,"ARCaP Neo cells; day 3, 10, 25 and 50 μM",remained unaffected
same,cell viability,ARCaP Snail cells [4]; day 0,no change in viability
same,decrease in cell viability,"ARCaP Snail cells [4]; day 3, 10 μM",approximately 25%
same,decrease in cell viability,"ARCaP Snail cells [4]; day 3, 25 μM",~35%
same,decrease in cell viability,"ARCaP Snail cells [4]; day 3, 50 μM",~35%
same,cell viability,"C4-2 cells [6]; C4-2, day 0",viability was unaffected
same,decrease in cell viability,"C4-2 cells [6]; C4-2, day 3, 10 μM",approximately 40±5%
same,decrease in cell viability,"C4-2 cells [6]; C4-2, day 3, 25 μM",approximately 40±5%
same,decrease in cell viability,"C4-2 cells [6]; C4-2, day 3, 50 μM",approximately 40±5%
same,cell viability,LNCaP cells; day 0,viability was unaffected
same,decrease in cell viability,"LNCaP cells; day 3, 50 μM",approximately 40±2%
same,fraction of cells with increased caspase-3/7 activity,"[5]; 25 μM camalexin, untreated control 21.7%",34.2%
same,Snail protein expression,Snail; [8],no detectable levels of Snail protein expression
same,Snail protein expression,"Snail; ARCaP Snail cells, 10, 25 and 50 μM",not affected by camalexin treatments
same,Snail protein expression,"Snail; C4-2 cells, 10, 25 and 50 μM",did not affect Snail expression
same,Snail protein expression,"Snail; LNCaP cells, 10 μM",moderate expressing band for Snail protein
same,total caspase-3 protein levels,"caspase-3; ARCaP Neo cells, 3 days",not in the less aggressive ARCaP Neo or LNCaP cells
same,total caspase-3 protein levels,"caspase-3; ARCaP Snail cells, 3 days (p<0.01 at 50 μM)",induced an increase in total caspase-3 protein levels
same,total caspase-3 protein levels,"caspase-3; C4-2 cells, 3 days",induced an increase in total caspase-3 protein levels
same,total caspase-3 protein levels,"caspase-3; LNCaP cells, 10 μM, 3 days",significant decrease in protein expression
same,total caspase-3 protein levels,"caspase-3; LNCaP cells, 3 days",not in the less aggressive ARCaP Neo or LNCaP cells
same,cleaved PARP protein expression,cleaved PARP; [8],very low levels of cleaved PARP protein expression
same,cleaved PARP protein expression,"cleaved PARP; ARCaP Snail cells, 10, 25 and 50 μM vs untreated control",marked increase in levels of cleaved PARP protein expression
same,PARP protein cleavage,"cleaved PARP; C4-2 cells, all 3 camalexin treatments, vs LNCaP cells",marked increase in PARP protein cleavage
same,apoptosis,Jurkat T-leukemia cells,induced apoptosis
same,cytostatic/cytotoxic effects,Trypanosoma cruzi,cytostatic/cytotoxic effects
